Laboratory results from publication PMC6934184, “Selective DNA-PKcs inhibition extends the therapeutic index of localized radiotherapy and chemotherapy” (The Journal of Clinical Investigation, 2019).

Target: T1, EIF2AK2 (PKR) (Homo sapiens, UniProt P19525)
T1 construct: purchased Thermo Fisher Scientific (Life Technologies) SelectScreen
Experiment: SelectScreen LanthaScreen
Format: binding
Details: 1 µM
Outline: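 SelectScreen broad panel; activity (Z'LYTE, Adapta) plus binding formats. ATP: Km app for CSF1R Z'LYTE; 10 for CAMK1 Adapta. Readout = % per kinase.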

T1 sequence (P19525 whole entry): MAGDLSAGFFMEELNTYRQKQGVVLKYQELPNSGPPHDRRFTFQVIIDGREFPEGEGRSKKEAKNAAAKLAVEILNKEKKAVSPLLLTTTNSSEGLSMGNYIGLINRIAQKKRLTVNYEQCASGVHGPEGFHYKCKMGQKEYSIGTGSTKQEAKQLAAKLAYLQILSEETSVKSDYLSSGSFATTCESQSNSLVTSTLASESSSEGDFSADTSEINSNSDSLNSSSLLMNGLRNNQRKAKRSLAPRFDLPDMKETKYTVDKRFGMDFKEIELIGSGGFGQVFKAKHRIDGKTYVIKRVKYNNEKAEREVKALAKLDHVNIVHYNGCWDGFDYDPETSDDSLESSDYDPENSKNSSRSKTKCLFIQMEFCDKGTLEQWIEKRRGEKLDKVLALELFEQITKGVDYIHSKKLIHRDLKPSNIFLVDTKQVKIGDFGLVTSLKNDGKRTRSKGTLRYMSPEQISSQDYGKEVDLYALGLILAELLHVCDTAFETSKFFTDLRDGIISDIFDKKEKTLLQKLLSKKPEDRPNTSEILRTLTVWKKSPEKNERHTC

`CN(C(=O)CN1CCOCC1)c1ccc2sc3c(-c4cccc5c(=O)cc(N6CC7CCC(C6)O7)oc45)cccc3c2c1` [NU5455] was tested, and the “% displacement” value was 13.3%.
